Literature values, collected in patent EP0315648B1 (THE UPJOHN COMPANY, priority 1986, dated 1988).

Settings: Hildebrand solubility coefficient of the solvent (scale of Vaughn)

Row | Structure (SMILES) | HSC
1 | CCCCCCCC/C=C\CCCCCCCCO [oleyl alcohol] | 9.8
2 | CC(O)CO (centres unmarked) [propylene glycol] | 14
